Literature values as cited in patent US6464981B2, “Therapeutic agent for a cancer and method of screening the same, and health-care auxiliary food” (Orient Cancer Therapy Co., LTD, priority 2000, dated 2002).

Test system: cancer-carrying mice

## CCCCCCCCCCCCCCCCCCCCCCCCCC(=O)N[C@@H](CO[C@H]1O[C@H](CO)[C@H](O)[C@H](O)[C@H]1O)[C@H](O)[C@H](O)CCCCCCCCCCCCCC [α-galactosylceramide]
  activation of NKT cells: NKT cells are activated
  elimination of cancer: elimination of cancer is not observed
  metastasis of the cancer: metastasis of the cancer is suppressed
